Results from patent US20260043028A1, “TREATMENT OF SPINAL MUSCULAR ATROPHY” (University of Pittsburgh - Of the Commonwealth System of …, priority 2023, published 2026).

Tested on: human patients with Type 3 SMA
Experiment: Four-week spinal cord stimulation (SCS) trial in SMA patients with or without concurrent SMA therapy (Nusinersen), with long-term follow-up
Type: in vivo
Excerpt: This example describes a particular method that can be used to treat SMA in a patient by applying a therapeutically effective amount of an electrical stimulus to the dorsolateral aspect of the spinal cord containing sensory neurons innervating a body region of the patient with motor impairment due to SMA. Although particular methods and protocols are provided, one skilled in the art will appreciate that variations can be made without substantially affecting the treatment. Three patients with SMA were identified and participated in this spinal cord stimulation trial. […]
Three human patients with Type 3 SMA that show quantifiable motor deficits of the legs are selected for treatment. […]
This example aims to measure immediate, end-of-study, and long-term effects of SCS on SMA including various clinical outcomes. […] As used herein, “immediate” refers to effects measured during the four-week study and relates to the usage of SCS. […] As used herein, “end-of-study” refers to effects measured within about 1 week before or after the end of the four-week study, around the time that the SCS electrodes are removed. […] In particular, as used herein, “long-term” refers to effects measured 50+ days after the electrodes are removed and relates to changes in motor ability over time without the continuous application of SCS. […]

Nusinersen
results throughout the course of the four-week experiment, compared with the patient not treated with an SMA therapy (SMA02 and SMA03 (Nusinersen plus SCS) vs SMA01 (SCS only), during the four-week experiment): did not exhibit substantially better results | long-term course of the beneficial effects of SCS (SMA02 and SMA03 on SMA therapy during SCS, long-term follow-up (50+ days after explant), SMA01 without therapy showed long-term degradation): long-term stability in the beneficial effects of SCS
